{"source": "patent US12053452B2", "about": "(priority 2021, dated 2024)", "key": {"[1]": {"details": "autistic adults, MDMA-assisted psychotherapy; cited from earlier work"}, "BTBR mice [2]": {"tested_on": "BTBR mice", "test": "Radiotelemetry of locomotor activity, BTBR", "type": "in vivo", "details": "for pattern of locomotor activity / dose-effect curve: any dose; for locomotor activity: 0 to 240 minutes", "method": "The radiotelemetry assay was conducted in adult male C57 and BTBR mice (n=6 per group) in a dedicated testing room where ambient light, sound, and human contact were tightly controlled.\nPrior to surgical implantation of radiotelemetry probes, mice received 3 mg/kg meloxicam (IP), and anesthesia was induced with 4% inhaled isoflurane and maintained with 1-3% isoflurane (as needed) throughout the procedure at a flow rate of 1.5 litres/minute. The abdominal area of each animal was treated with depilatory cream, then sanitized with 3 alternating scrubs with iodine and alcohol. A rostral-caudal cut approximately 1.5 cm in length was made with sterile skin scissors, providing access to the intraperitoneal cavity. A cylindrical glass-encapsulated radiotelemetry probe (model ER-4000 E-Mitter, Mini Mitter, Bend, OR, USA) was then inserted. These probes measure 15.5 mm×6.5 mm and weigh approximately 1 gram. Incisions were closed (skin layer and muscle layer separately) using reverse cutting 5-0 Vicryl absorbable sutures for the muscle layer and 5-0 nylon suture material for the skin layer. Surgeries were carried out at least 7 days before initiation of experimental conditions, allowing time for incisions to heal and for animals to recover normal body weights. Following surgery, all implanted mice were individually housed in Plexiglas cages within the telemetry room for the duration of all experiments. Implanted transmitters produce activity- and temperature-modulated signals which are sent to a receiver (model ER-4000 Receiver, Mini Mitter Co., Inc.) underneath each cage. Following use, telemetry probes were removed from carcasses, wiped with alcohol swabs, and stored in the disinfectant solution until re-use.\nAt least 7 days after surgical implantation of radiotelemetry probes, mice in their individual home cages were placed atop a telemetry energizer/receiver, which powered probes and transmitted their data to an interfaced computer. Upon initiation of an experimental session, the computer collected two data updates from the probes at 5 min intervals: core temperature (in ° C.) on one channel, and locomotor counts (in arbitrary units, depending on the relative position of the probe atop the receiver) on the other. After at least 60 minutes of baseline data collection, mice were removed from their cages, injected with saline or a given dose of a specific drug, then returned to the home cage 24 hours of data collection.\nFood and water were always freely available in the home cage. Mice were injected with ascending doses of a given drug, with at least 48 hours separating doses. Because there are few studies of drug effects in BTBR mice, the first drug dose tested occasionally elicited unexpectedly large locomotor effects in these animals. In these cases, smaller drug doses were tested next, after a washout period of at least one full day."}, "C57 mice [3]": {"tested_on": "C57 mice", "test": "Social preference procedure: compartment entries (proxy for locomotor stimulant effects), C57", "type": "in vivo", "method": "(§1) This assay was conducted in adult male C57 and BTBR mice (n=6 per group) in a dedicated conditioning room where ambient light, sound, and human contact were tightly controlled. Social preference chambers consist of two polycarbonate boxes (13.5 cm wide×22.5 cm tall×31.0 cm deep), floored with rough-textured black ABS plastic, and connected to one another by a 1.25″ PVC T-junction. An infrared photobeam emitter/detector array is mounted at each intersection of the T-junction and each preference compartment, and as a mouse traversed the apparatus, it would break the photobeam upon entry to or exit from each preference compartment. Beam breaks started or stopped a counter on an interfaced computer, allowing automated collection of time spent in each compartment. At the end of each test, data were reported as time (in seconds) spent in each compartment, the number of entries into each compartment, and the average time spent in each compartment following an entry. Social preference tests were conducted in an iterative manner, with each test subject completing four distinct phases as described below. Between testing sessions, chambers were sanitized by wiping the insides with a disinfectant product provided by the UAMS Department of Laboratory Animal Medicine. At the end of the week (upon completion of all phases of the procedure), each apparatus was disassembled and all parts were sanitized. No food or water were available during social preference sessions, but were available in the home cage immediately afterwards.\n(§2) Quantification of total entries into the preference compartments provided a proxy measurement for locomotor stimulant effects of the various doses of the various test drugs. This established a limit to the drug doses that can be tested in the social preference procedure, as induction of locomotor stimulant effects confounds preference assessments (because mice stop attending to the social stimuli in each compartment and instead spend their time engaged in locomotor behavior.) Motor activity varied across the distinct phases of social preference testing, in part because the habituation session is twice as long (30 minutes) as the novelty, sociability, and social novelty tests (15 minutes each), but also because mice emitted high levels of exploratory behavior in novel environments. Thus, as familiarity with the test apparatus increased over successive exposures to the chambers, the number of entries decreased.\n(§3) (Note that entries were collected for every test, but drug effects on entries during earlier phases may be less reliable due to the confounding influence of changing familiarity with the apparatus across phases.)"}, "C57 mice [4]": {"tested_on": "C57 mice", "test": "Novelty preference test, C57", "type": "in vivo", "method": "as §1\nA single novelty preference session occurred the day after the habituation test, where one compartment contained an empty wire mesh cup and the other compartment contained an identical wire mesh cup with a novel dummy mouse inside. The position of the dummy mouse (left or right compartment) was counterbalanced across subjects. Dummy mice were constructed from 2.5″ lengths of white ¾″ PVC pipe, with a zip tie attached to one end (to mimic a tail) and two red dots drawn on the other end (to mimic eyes.) During this session, mice were weighed, administered an injection, and returned to their home cage for a 30 min pretreatment period. Mice were then introduced into the T-junction and allowed to explore both preference compartments for 15 minutes. These tests were conducted as a procedural control to ensure that any observed drug effects were not simply due to enhancement of the innate novelty preference of mice. Novelty preference sessions always occurred on Tuesdays or Wednesdays to prevent any weekend testing."}, "BTBR mice [5]": {"tested_on": "BTBR mice", "test": "Social preference procedure: compartment entries (proxy for locomotor stimulant effects), BTBR", "type": "in vivo", "method": "as §1, §2, §3"}, "C57 mice [6]": {"tested_on": "C57 mice", "test": "Sociability test, C57", "type": "in vivo", "method": "as §1\nA single sociability session occurred the day after the novelty preference test, where one compartment contained a wire mesh cup with a dummy mouse inside while the other compartment contained a male NIH Swiss stranger mouse inside the previously empty cup. […] The position of the dummy mouse (left or right compartment) remained the same for each subject as during the novelty test the day before, thereby counterbalancing the position of the stranger mouse across subjects. NIH Swiss stranger mice were similar in mass and appearance to the dummy PVC mice, and were housed separately from the experimental subjects (C57 and BTBR mice) in the colony facility. The first time the experimental subjects ever encountered the stranger mice was when they entered the compartment where they were contained. During this session, mice were weighed, administered the same injection as the day before, and returned to their home cage for a 30 min pretreatment period. Mice were then introduced into the T-junction and allowed to explore both preference compartments for 15 minutes. Sociability tests always occurred on Wednesdays or Thursdays to prevent any weekend testing."}, "[7]": {"details": "rats, cited from earlier work; for Cmax (maximum MDMA concentration): 2 mg/kg; for Cmax: 10 mg/kg"}, "[8]": {"details": "3.0 mg/kg IP, social novelty test"}}, "note": "Entries after “also recorded” stand apart in the source; their conditions may differ. Like-named read-outs stand apart in the source and are kept apart here.", "data": [{"smiles": "CNC(C)Cc1ccc2c(c1)OCO2", "note": "(racemic) [racemic MDMA, 1-(1,3-benzodioxol-5-yl)-N-methylpropan-2-amine]", "values": [{"measurement": "social anxiety symptoms", "setting": "[1]", "value": "rapid and durable improvement in social anxiety symptoms"}, {"measurement": "pattern of locomotor activity / dose-effect curve", "setting": "BTBR mice [2]", "value": "No evidence of motor stereotypy; also recorded: does not follow this biphasic pattern"}, {"measurement": "compartment entries (locomotor stimulant effect)", "setting": "C57 mice [3]; [8]", "value": "had no effects on locomotor activity"}, {"measurement": "compartment entries (locomotor stimulant effect)", "setting": "C57 mice [3]; various doses IP", "value": "dose-response stimulant effect"}, {"measurement": "novelty preference (time spent with the dummy mouse)", "setting": "C57 mice [4]; 3.0 mg/kg IP", "value": "had no effects on locomotor activity (see FIG. 4) or novelty preference"}, {"measurement": "novelty preference (time spent with the dummy mouse)", "setting": "C57 mice [4]; 5.6 mg/kg IP", "value": "elicited avoidance of the dummy mouse"}, {"measurement": "compartment entries (locomotor stimulant effect)", "setting": "BTBR mice [5]; [8]", "value": "increased the number of entries"}, {"measurement": "compartment entries (locomotor stimulant effect)", "setting": "BTBR mice [5]; 5.6 mg/kg IP, social novelty test", "value": "~100", "unit": "entries"}, {"measurement": "compartment entries (locomotor stimulant effect)", "setting": "BTBR mice [5]; all tested doses IP", "value": "dose-response stimulant effect"}, {"measurement": "sociability (time spent with the stranger mouse vs dummy)", "setting": "C57 mice [6]; 3.0 mg/kg IP, 3 mg/kg", "value": "moderate preference for the stranger over the dummy"}, {"measurement": "sociability (time spent with the stranger mouse vs dummy)", "setting": "C57 mice [6]; 3.0 mg/kg IP, listed as racemic (50/50) MDMA, 3 mg/kg", "value": "elicit significant effects on sociability"}, {"measurement": "sociability (time spent with the stranger mouse vs dummy)", "setting": "C57 mice [6]; various doses IP", "value": "dose-dependent increase in time spent with the stranger mouse"}, {"measurement": "Cmax (maximum MDMA concentration)", "setting": "[7]; intraperitoneal", "value": 210, "unit": "ng/mL"}, {"measurement": "Cmax (maximum MDMA concentration)", "setting": "[7]; oral", "value": 46, "unit": "ng/mL"}, {"measurement": "Cmax (maximum MDMA concentration)", "setting": "[7]; subcutaneous", "value": 196, "unit": "ng/mL"}, {"measurement": "Cmax", "setting": "[7]; intraperitoneal", "value": 2257, "unit": "ng/mL"}, {"measurement": "Cmax", "setting": "[7]; oral", "value": 966, "unit": "ng/mL"}, {"measurement": "Cmax", "setting": "[7]; subcutaneous", "value": 1130, "unit": "ng/mL"}]}, {"smiles": "CN[C@@H](C)Cc1ccc2c(c1)OCO2", "note": "[S(+)-MDMA, (2S)-1-(1,3-benzodioxol-5-yl)-N-methylpropan-2-amine]", "values": [{"measurement": "locomotor activity", "setting": "BTBR mice [2]; 10 mg/kg IP", "value": "elicited a substantially large stimulation in motor activity"}, {"measurement": "locomotor activity", "setting": "BTBR mice [2]; 30 mg/kg IP", "value": "elicited a large stimulation in motor activity"}, {"measurement": "pattern of locomotor activity / dose-effect curve", "setting": "BTBR mice [2]", "value": "No evidence of motor stereotypy"}, {"measurement": "compartment entries (locomotor stimulant effect)", "setting": "C57 mice [3]; various doses IP", "value": "dose-response stimulant effect"}, {"measurement": "novelty preference (time spent with the dummy mouse)", "setting": "C57 mice [4]; various doses IP", "value": "no systematic effects on novelty preference"}, {"measurement": "compartment entries (locomotor stimulant effect)", "setting": "BTBR mice [5]; 3.0 mg/kg IP, social novelty test, 3 mg/kg", "value": "roughly equivalent entries to 3.0 mg/kg racemic MDMA"}, {"measurement": "compartment entries (locomotor stimulant effect)", "setting": "BTBR mice [5]; 3.0 mg/kg IP, social novelty test, listed as S-MDMA, 3 mg/kg", "value": "increased the number of entries"}, {"measurement": "compartment entries (locomotor stimulant effect)", "setting": "BTBR mice [5]; all tested doses IP", "value": "dose-response stimulant effect"}, {"measurement": "sociability (time spent with the stranger mouse vs dummy)", "setting": "C57 mice [6]; 3.0 mg/kg IP", "value": "not different from saline"}, {"measurement": "sociability (time spent with the stranger mouse vs dummy)", "setting": "C57 mice [6]; various doses IP", "value": "no systematic effects on sociability"}]}]}
